The values that follow come from patent US4151291A, “Ethers of 7-hydroxy-coumarin useful as medicaments” (Unicler, priority 1976, dated 1979).

One data set is described as follows: oral LD50. The following applies: in vivo. The procedure:
In addition the oral LD50 was determined for the compounds of the invention.

Data set [1] relates to pain syndrome provoked in mice by injection of phenylbenzoquinone. As to the kind of experiment: analgesia test of Siegmund, Cadmus and Lu (phenylbenzoquinone-induced pain syndrome). Type of data set: in vivo, mice of Swiss strain. The following applies: oral, 30 minutes before phenylbenzoquinone, extensions counted over 10 minutes vs control. The protocol:
They have in particular been submitted to the test of analgesia of Siegmund, Cadmus and Lu (Proc. Soc. Exp. Biol. Med. 95, 729, 1957) according to which a characteristic pain syndrome is provoked in mice by injection of phenylbenzoquinone.
The animals used are mice of Swiss strain weighing 20±2 grams.
The animals are separated into groups of 10, randomly but are individually submitted to experiments. Each experiment is carried out on at least two groups:
a control group receiving solvent and phenylbenzoquinone
a group treated with test compound.
The test compounds are administered orally, 30 minutes before the injection of the irritant. Each mouse then receives intraperitoneally 0.25 ml of a 0.02% phenylbenzoquinone solution.
The pain syndrome generated by the injection of phenylbenzoquinone consists of extension of the abdomen and the back legs; at the height of the reaction, the flanks of the animal are very contracted. 5 Minutes after the injection of the irritant, the extensions are counted over a period of 10 minutes.
For each group, the mean number of extensions is calculated. The activity (A) of the test compound is determined by comparison between the mean number of extensions in the treated animals (N) and the mean number of extensions in the control animals (N') according to the equation [formula]
The statistical significance of the result thus obtained is evaluated by the non-parametric test of Fisher.

A value given as a limit tells only on which side of the number the result lay.

By LD50 is commonly meant the dose at which mortality reaches 50%. In the data set “oral LD50”, `C#CCOc1ccc2c(-c3ccccc3[N+](=O)[O-])cc(=O)oc2c1` [JB 5, 4-o-nitrophenyl-7-propargyloxy-coumarin] registered an LD50 of more than 2000 mg/kg. Also, the “Analgesic Activity A” value in data set [1] (dose 200 mg/kg) came to 40%.

For `C#CCOc1ccc2ccc(=O)oc2c1` [JB 1, 7-Propargyloxy-coumarin], in “oral LD50”, the LD50 is 1500 mg/kg. Besides, in data set [1] (dose 150 mg/kg), the “Analgesic Activity A” value came out at 55%.

For `Cc1cc(=O)oc2cc(OCC#CCN(C)C)ccc12` [JB 16, 4-Methyl-7-(4-dimethylamino-but-2-ynyloxy)-coumarin], the LD50 in the data set “oral LD50” amounted to 500 mg/kg. Further, in data set [1] (dose 50 mg/kg), the “Analgesic Activity A” value is on record as 30%.

For `C#CCOc1ccc2c(C)cc(=O)oc2c1` [JB 2, 4-Methyl-7-propargyloxy-coumarin], the LD50 in “oral LD50” was 1500 mg/kg. Further, the “Analgesic Activity A” value in data set [1] (dose 150 mg/kg) is given as 98%.

In the case of `C#CCOc1ccc2c(C)c(CC)c(=O)oc2c1` [JB 4, 3-Ethyl-4-methyl-7-propargyloxy-coumarin], the LD50 in “oral LD50” worked out at 1000 mg/kg. Besides, the “Analgesic Activity A” value in data set [1] (dose 100 mg/kg) stood at 65%.

The compound `Cc1cc(=O)oc2cc(OCC#CCN3CCOCC3)ccc12` [JB 12, 4-Methyl-7-(4-morpholino-but-2-ynyloxy)-coumarin] gave an LD50 in the data set “oral LD50” of 1500 mg/kg. In addition, the “Analgesic Activity A” value in data set [1] (dose 150 mg/kg) is on record as 88%.

For the compound `C#CCOc1ccc2c(C)c(CC=C)c(=O)oc2c1` [JB 19, 3-Allyl-4-methyl-7-propargyloxy-coumarin], in the data set “oral LD50”, the LD50 turned out to be 1500 mg/kg. Besides, in data set [1] (dose 150 mg/kg), the “Analgesic Activity A” value was found to be 81%.
